Measurements taken from patent publication US20070105864A1, “Methods for inhibiting protein kinases” (Schering Corporation, priority 2005, published 2007).
Read-outs that look alike come from different tables or passages of the source.

Legend:
recombinant His-CHK1 = molecular target: T1, recombinant His-CHK1 (Homo sapiens, UniProt O14757); assay: CHK1 SPA Assay; type: biochemical; conditions: read-out: CHK-1 IC50
T1 construct: His-CHK1, In House Lot P976, MW ˜30 KDa, stored at −80 °C; fused on or other part: His tag
T1 sequence (O14757 1-265 limits assumed): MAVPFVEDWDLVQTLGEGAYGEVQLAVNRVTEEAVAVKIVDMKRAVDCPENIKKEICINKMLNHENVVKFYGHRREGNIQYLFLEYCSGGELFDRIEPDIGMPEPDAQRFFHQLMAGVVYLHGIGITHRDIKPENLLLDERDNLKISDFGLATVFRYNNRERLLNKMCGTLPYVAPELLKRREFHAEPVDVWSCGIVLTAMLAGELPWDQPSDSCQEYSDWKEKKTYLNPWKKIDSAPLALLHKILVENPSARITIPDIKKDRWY
Protocol: An in vitro assay was developed that utilizes recombinant His-CHK1 expressed in the baculovirus expression system as an enzyme source and a biotinylated peptide based on CDC25C as substrate (biotin-[…]).
1) CDC25C Ser 216 C-term Biotinylated peptide substrate (25 mg), stored at −20 °C, Custom Synthesis by Research Genetics: biotin-[…] 2595.4 MW
2) His-CHK1 In House lot P976, 235 ug/mL, stored at −80 °C.
1) Kinase Buffer: 50 mM Tris pH 8.0; 10 mM MgCl2; 1 mM DTT
2) His-CHK1, In House Lot P976, MW ˜30 KDa, stored at −80 °C. […] For 1 plate (100 r×n): dilute 8 μL of 235 μg/mL (7.83 uM) stock in 2 mL Kinase Buffer. This makes a 31 nM mixture. Add 20 μL/well. This makes a final reaction concentration of 6 nM.
3) CDC25C Biotinylated peptide.
Dilute CDC25C to 1 mg/mL (385 uM) stock and store at −20° C. For 1 plate (100 r×n): dilute 10 1L of 1 mg/mL peptide stock in 2 ml Kinase Buffer. This gives a 1.925 μM mix. Add 20 1L/r×n. This makes a final reaction concentration of 385 nM.
For 1 plate (100 r×n): dilute 10 μL of 1 mM ATP (cold) stock and 2 uL fresh P33-ATP (20 μCi) in 5 ml Kinase Buffer. This gives a 2 μM ATP (cold) solution; add 50 μl/well to start the reaction. Final volume is 100 μl/r×n so the final reaction concentrations will be 1 μM ATP (cold) and 0.2 uCi/r×n.
For 1 plate add: To 10 mL Wash Buffer 2 (2M NaCl 1% H3PO4): 1 mL SPA bead slurry (50 mg); Add 100 μL/well
6) Wash buffer 1: 2 M NaCl
7) Wash buffer 2: 2 M NaCl, 1% H3PO4
Dispense 10 μl/r×n to appropriate wells. Add 10 μL 10% DMSO to positive (CHK1+CDC25C+ATP) and negative (CHK1+ATP only) control wells. 2) Thaw enzyme on ice—dilute enzyme to proper concentration in kinase buffer (see Reaction Mixtures) and dispense 20 μl to each well. 3) Thaw the Biotinylated substrate on ice and dilute in kinase buffer (see Reaction Mixtures). Add 20 μL/well except to negative control wells. Instead, add 20 uL Kinase Buffer to these wells. 4) Dilute ATP (cold) and P33-ATP in kinase buffer (see Reaction Mixtures). Add 50 μL/well to start the reaction. 5) Allow the reaction to run for 2 hours at room temperature. 6) Stop reaction by adding 100 uL of the SPA beads/stop solution (see Reaction Mixtures) and leave to incubate for 15 minutes before harvest 7) Place a blank Packard GF/B filter plate into the vacuum filter device (Packard plate harvester) and aspirate […] water through to wet the system. 8) Take out the blank and put in the Packard GF/B filter plate. 9) Aspirate the reaction through the filter plate. 10) Wash: 200 ml each wash; 1× with 2M NaCl; 1× with 2M NaCl/1% H3PO4 11) Allow filter plate to dry 15 min. 12) Put TopSeal-A adhesive on top of filter plate. 13) Run filter plate in Top Count
Settings: • Data mode: CPM • Radio nuclide: Manual SPA:P33 • Scintillator: Liq/plast • Energy Range: Low
(§1) IC50 DETERMINATIONS: Dose-response curves were plotted from inhibition data generated, each in duplicate, from 8 point serial dilutions of inhibitory compounds. Concentration of compound was plotted against % kinase activity, calculated by CPM of treated samples divided by CPM of untreated samples. To generate IC50 values, the dose-response curves were then fitted to a standard sigmoidal curve and IC50 values were derived by nonlinear regression analysis.

Cyclin E/CDK2 = molecular target: T2, Cyclin E/CDK2 (Homo sapiens, UniProt P24941); assay: CDK2 Assay (Cyclin E/CDK2 in vitro kinase assay); type: biochemical
T2 construct: made in house; host or cells: SF9 cells (baculovirus co-infection)
Description: BACULOVIRUS CONSTRUCTIONS: Cyclin E was cloned into pVL1393 (Pharmingen, La Jolla, Calif.) by PCR, with the addition of 5 histidine residues at the amino-terminal end to allow purification on nickel resin. The expressed protein was approximately 45 kDa. CDK2 was cloned into pVL1393 by PCR, with the addition of a haemaglutinin epitope tag at the carboxy-terminal end (YDVPDYAS). The expressed protein was approximately 34 kDa in size.
ENZYME PRODUCTION: Recombinant baculoviruses expressing cyclin E and CDK2 were co-infected into SF9 cells at an equal multiplicity of infection (MOI=5), for 48 hrs. Cells were harvested by centrifugation at 1000 RPM for 10 minutes, then pellets lysed on ice for 30 minutes in five times the pellet volume of lysis buffer containing 50 mM Tris pH 8.0, 1 50 mM NaCl, 1% NP40, 1 mM DTT and protease inhibitors (Roche Diagnostics GmbH, Mannheim, Germany). Lysates were spun down at 15000 RPM for 10 minutes and the supernatant retained. 5 ml of nickel beads (for one liter of SF9 cells) were washed three times in lysis buffer (Qiagen GmbH, Germany). Imidazole was added to the baculovirus supernatant to a final concentration of 20 mM, then incubated with the nickel beads for 45 minutes at 4° C. Proteins were eluted with lysis buffer containing 250 mM imidazole. Eluate was dialyzed overnight in 2 liters of kinase buffer containing 50 mM Tris pH 8.0, 1 mM DTT, 10 mM MgCl2, 100 uM sodium orthovanadate and 20% glycerol. Enzyme was stored in aliquots at −70° C.
IN VITRO KINASE ASSAY: Cyclin E/CDK2 kinase assays were performed in low protein binding 96-well plates (Corning Inc, Corning, N.Y.). Enzyme was diluted to a final concentration of 50 μg/ml in kinase buffer containing 50 mM Tris pH 8.0, 10 mM MgCl2, 1 mM DTT, and 0.1 mM sodium orthovanadate. The substrate used in these reactions was a biotinylated peptide derived from Histone H1 (from Amersham, UK). The substrate was thawed on ice and diluted to 2 μM in kinase buffer. Compounds were diluted in 10% DMSO to desirable concentrations. For each kinase reaction, 20 μl of the 50 µg/ml enzyme solution (1 μg of enzyme) and 20 μl of the 2 μM substrate solution were mixed, then combined with 10 μl of diluted compound in each well for testing. The kinase reaction was started by addition of 50 μl of 2 μM ATP and 0.1 μCi of 33P-ATP (from Amersham, UK). The reaction was allowed to run for 1 hour at room temperature. The reaction was stopped by adding 200 μl of stop buffer containing 0.1% Triton X-100, 1 mM ATP, 5 mM EDTA, and 5 mg/ml streptavidine coated SPA beads (from Amersham, UK) for 15 minutes. The SPA beads were then captured onto a 96-well GF/B filter plate (Packard/Perkin Elmer Life Sciences) using a Filtermate universal harvester (Packard/Perkin Elmer Life Sciences.). Non-specific signals were eliminated by washing the beads twice with 2M NaCl then twice with 2 M NaCl with 1% phosphoric acid. The radioactive signal was then measured using a TopCount 96 well liquid scintillation counter (from Packard/Perkin Elmer Life Sciences).
as §1

| Compound | IC50 (recombinant His-CHK1) [nM] | IC50 (Cyclin E/CDK2; read-out: CDK2 IC50) [nM] | IC50 (Cyclin E/CDK2; CDK2 IC50) [nM] |
| --- | --- | --- | --- |
| Cn1cc(-c2cnc3c(Nc4ccc5ncccc5c4)nccn23)cn1 | 492 | – | – |
| Cc1cc(Nc2nccn3c(-c4cnn(C)c4)cnc23)sn1 | 54 | – | – |
| CNCCc1cn2c(-c3cnn(C)c3)cnc2c(Nc2cc(C)ns2)n1 | 13 | 11400 | – |
| Cc1cc(Nc2nc(CCN)cn3c(-c4cnn(C)c4)cnc23)sn1 | 7 | 5940 | – |
| Cn1cc(-c2cnc3c(Nc4cc(C5CCNCC5)ns4)nccn23)cn1 | 31 | 18100 | – |
| Cn1cc(-c2cnc3c(Nc4ccc(-n5ccnc5)cc4)nc(C4=CCNCC4)cn23)cn1 | 181 | – | 19400 |
| Cc1cc(Nc2nc(C3=CCCNC3)cn3c(-c4cnn(C)c4)cnc23)sn1 | 14 | 11000 | – |
| Cc1cc(Nc2nc(C3CCCNC3)cn3c(-c4cnn(C)c4)cnc23)sn1 (stereo not shown) | 13 | 1100 | – |
| Cn1cc(-c2cnc3c(Nc4sncc4C4CCCNC4)nccn23)cn1 (stereo not shown) | 18 | 21800 | – |
| Cn1cc(-c2cnc3c(Nc4sncc4C4CCNC4)nccn23)cn1 (stereo not shown) | 23 | – | – |
| Cc1cnsc1Nc1nc(CCCN)cn2c(-c3cnn(C)c3)cnc12 | 5 | 1910 | – |
| CNCCCc1cn2c(-c3cnn(C)c3)cnc2c(Nc2sncc2C)n1 | 8 | 5770 | – |
| Cn1cc(-c2cnc3c(Nc4sncc4C4CCN(S(C)(=O)=O)C4)nc(CCCN)cn23)cn1 (stereo not shown) | 8 | – | – |
| Cc1cc(Nc2nc(C3=CCCNC3)cn3c(-c4cnn(C)c4)cnc23)sc1S(=O)(=O)N(C)C | 7 | 5200 | – |
| CC(C)c1cnsc1Nc1nc(CCN)cn2c(-c3cnn(C)c3)cnc12 | 6380 | 13 | – |
| Cn1cc(-c2cnc3c(Nc4sncc4C(C)(C)C)nc(C4=CCCNC4)cn23)cn1 | 16 | 13700 | – |
| CC(C)c1cnsc1Nc1nc(C2=CCCNC2)cn2c(-c3cnn(C)c3)cnc12 | 6 | 4210 | – |
| Cc1cc(Nc2nc(C3=CCCNC3)cn3c(-c4cnn(C)c4)cnc23)sc1C(=O)N(C)C | 16 | 24100 | – |
| Cc1cc(Nc2nc(C3=CCCNC3)cn3c(-c4cnn(C)c4)cnc23)sc1C(N)=O | 23 | 16200 | – |
